Laboratory results: ChEMBL document CHEMBL5212743, “Selectivity Literature for EUbOPEN Chemogenomics Library wave 3” (2023)
Each block holds one compound with its values, some of them ahead of it.

Assays:
[1] = target: T1, Platelet-derived growth factor receptor alpha (Homo sapiens, UniProt P16234); assay: Selectivity interaction (KinomeScan (DiscoverX)) EUB0000321b PDGFRA; conditions: at 100 nM
[2] = target: T2, Platelet-derived growth factor receptor beta (Homo sapiens, UniProt P09619); assay: Selectivity interaction (NanoBRET assay (HEK293T cells)) EUB0000321b PDGFRB
T2 sequence (P09619 whole entry): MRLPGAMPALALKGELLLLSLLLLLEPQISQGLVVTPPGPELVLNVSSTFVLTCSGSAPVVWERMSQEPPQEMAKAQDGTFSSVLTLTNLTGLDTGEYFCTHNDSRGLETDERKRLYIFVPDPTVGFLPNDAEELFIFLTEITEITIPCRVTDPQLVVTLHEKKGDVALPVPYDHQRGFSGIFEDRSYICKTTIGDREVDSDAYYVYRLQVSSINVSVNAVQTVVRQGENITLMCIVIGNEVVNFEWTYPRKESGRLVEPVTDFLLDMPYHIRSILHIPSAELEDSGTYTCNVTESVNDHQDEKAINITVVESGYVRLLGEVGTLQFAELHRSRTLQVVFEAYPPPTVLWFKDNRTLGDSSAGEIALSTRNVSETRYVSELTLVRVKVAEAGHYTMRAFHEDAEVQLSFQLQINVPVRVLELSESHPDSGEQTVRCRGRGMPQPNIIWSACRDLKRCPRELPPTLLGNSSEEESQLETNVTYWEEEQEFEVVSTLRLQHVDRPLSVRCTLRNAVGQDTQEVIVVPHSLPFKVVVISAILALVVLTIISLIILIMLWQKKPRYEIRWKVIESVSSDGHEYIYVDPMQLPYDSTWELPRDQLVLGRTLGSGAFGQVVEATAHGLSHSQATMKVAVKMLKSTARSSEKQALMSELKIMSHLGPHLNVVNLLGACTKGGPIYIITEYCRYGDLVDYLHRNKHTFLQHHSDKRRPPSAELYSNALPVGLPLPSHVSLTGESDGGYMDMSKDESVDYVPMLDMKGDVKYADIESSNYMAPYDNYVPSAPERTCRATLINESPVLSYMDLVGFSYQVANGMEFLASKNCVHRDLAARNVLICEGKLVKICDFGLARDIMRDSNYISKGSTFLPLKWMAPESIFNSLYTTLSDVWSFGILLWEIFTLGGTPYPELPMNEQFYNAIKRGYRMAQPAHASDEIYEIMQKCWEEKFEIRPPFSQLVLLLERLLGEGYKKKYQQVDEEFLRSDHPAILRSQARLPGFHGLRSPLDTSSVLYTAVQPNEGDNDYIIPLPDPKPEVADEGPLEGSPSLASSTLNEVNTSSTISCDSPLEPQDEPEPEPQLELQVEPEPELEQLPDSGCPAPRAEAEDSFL

[3] = target: T3, Mast/stem cell growth factor receptor Kit (Homo sapiens, UniProt P10721); assay: Selectivity interaction (KinomeScan (DiscoverX)) EUB0000321b KIT; conditions: at 100 nM
T3 sequence (P10721 whole entry): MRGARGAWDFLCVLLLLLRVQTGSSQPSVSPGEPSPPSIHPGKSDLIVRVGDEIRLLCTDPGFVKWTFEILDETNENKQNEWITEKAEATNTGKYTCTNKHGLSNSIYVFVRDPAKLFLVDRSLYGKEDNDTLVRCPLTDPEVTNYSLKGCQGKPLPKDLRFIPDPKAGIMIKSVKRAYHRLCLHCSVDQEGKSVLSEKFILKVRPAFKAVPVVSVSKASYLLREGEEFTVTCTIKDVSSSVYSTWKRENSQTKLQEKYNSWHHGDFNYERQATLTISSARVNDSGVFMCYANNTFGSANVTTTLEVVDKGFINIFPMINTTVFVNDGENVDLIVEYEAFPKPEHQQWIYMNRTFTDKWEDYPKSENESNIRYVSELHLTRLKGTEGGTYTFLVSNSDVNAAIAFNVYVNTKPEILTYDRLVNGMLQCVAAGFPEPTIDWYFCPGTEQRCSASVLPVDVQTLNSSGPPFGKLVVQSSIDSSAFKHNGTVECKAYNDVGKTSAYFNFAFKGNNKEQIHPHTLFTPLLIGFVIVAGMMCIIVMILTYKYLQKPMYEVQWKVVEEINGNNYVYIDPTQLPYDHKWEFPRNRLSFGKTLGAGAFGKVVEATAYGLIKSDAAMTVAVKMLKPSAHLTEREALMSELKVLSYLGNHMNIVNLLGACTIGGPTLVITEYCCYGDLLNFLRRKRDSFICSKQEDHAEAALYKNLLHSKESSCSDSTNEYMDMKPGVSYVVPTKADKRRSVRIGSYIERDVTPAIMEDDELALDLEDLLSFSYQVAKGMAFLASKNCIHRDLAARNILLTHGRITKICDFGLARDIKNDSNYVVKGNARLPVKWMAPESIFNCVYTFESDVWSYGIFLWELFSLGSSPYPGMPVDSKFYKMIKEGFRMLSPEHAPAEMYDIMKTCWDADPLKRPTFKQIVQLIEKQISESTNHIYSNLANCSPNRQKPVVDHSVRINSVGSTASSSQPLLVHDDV

[4] = target: Dual specificity tyrosine-phosphorylation-regulated kinase 1B (Homo sapiens, UniProt Q9Y463); assay: Selectivity interaction (KinomeScan (DiscoverX)) EUB0000321b DYRK1B; conditions: at 100 nM
[5] = target: Mitogen-activated protein kinase kinase kinase 5 (Homo sapiens) (UniProt Q99683); assay: Selectivity interaction (KinomeScan (DiscoverX)) EUB0000321b MAP3K5; conditions: at 100 nM
[6] = target: Receptor-type tyrosine-protein kinase FLT3 (Homo sapiens, UniProt P36888); assay: (§1) Selectivity interaction (NanoBRET assay (HEK293T cells)) EUB0000321b FLT3
[7] = target: Receptor-type tyrosine-protein kinase FLT3 (Homo sapiens, UniProt P36888, D835V); assay: as §1
[8] = target: T2, Platelet-derived growth factor receptor beta; assay: Selectivity interaction (KinomeScan (DiscoverX)) EUB0000321b PDGFRB; conditions: at 100 nM
[9] = target: Dual specificity tyrosine-phosphorylation-regulated kinase 1A (Homo sapiens, UniProt Q13627); assay: Selectivity interaction (KinomeScan (DiscoverX)) EUB0000321b DYRK1A; conditions: at 100 nM
[10] = target: T4, Dual specificity mitogen-activated protein kinase kinase 5 (Homo sapiens) (UniProt Q13163); assay: Selectivity interaction (KinomeScan (DiscoverX)) EUB0000321b MAP2K5; conditions: at 100 nM
T4 sequence (whole entry): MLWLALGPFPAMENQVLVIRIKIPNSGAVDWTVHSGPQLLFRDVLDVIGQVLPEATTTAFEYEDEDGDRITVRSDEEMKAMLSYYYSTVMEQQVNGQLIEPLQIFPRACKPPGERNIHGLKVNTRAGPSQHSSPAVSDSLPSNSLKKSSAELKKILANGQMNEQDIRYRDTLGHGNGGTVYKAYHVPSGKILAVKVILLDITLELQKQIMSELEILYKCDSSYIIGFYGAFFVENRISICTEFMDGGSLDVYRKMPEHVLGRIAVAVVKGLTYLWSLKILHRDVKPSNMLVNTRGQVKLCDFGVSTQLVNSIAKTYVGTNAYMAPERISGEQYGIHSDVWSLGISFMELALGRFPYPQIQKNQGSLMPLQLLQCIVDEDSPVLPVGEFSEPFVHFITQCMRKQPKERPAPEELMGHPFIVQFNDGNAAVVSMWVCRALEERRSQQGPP

[11] = target: T1, Platelet-derived growth factor receptor alpha; assay: Selectivity interaction (NanoBRET assay (HEK293T cells)) EUB0000321b PDGFRA
[12] = target: T5, Dual specificity mitogen-activated protein kinase kinase 5 (Homo sapiens, UniProt Q13163); assay: Selectivity interaction (NanoBRET assay (HEK293T cells)) EUB0000321b MAP2K5
T5 sequence (Q13163 whole entry): T4 sequence (whole entry)

[13] = target: T3, Mast/stem cell growth factor receptor Kit; assay: Selectivity interaction (NanoBRET assay (HEK293T cells)) EUB0000321b KIT
[14] = target: Mitogen-activated protein kinase kinase kinase 5 (Homo sapiens, UniProt Q99683); assay: Selectivity interaction (NanoBRET assay (HEK293T cells)) EUB0000321b MAP3K5
[15] = target: T6, Serine/threonine-protein kinase Chk2 (Homo sapiens, UniProt O96017); assay: Selectivity interaction (KinomeScan (DiscoverX)) EUB0000712a CHEK2; conditions: at 1 µM
T6 sequence (O96017 whole entry): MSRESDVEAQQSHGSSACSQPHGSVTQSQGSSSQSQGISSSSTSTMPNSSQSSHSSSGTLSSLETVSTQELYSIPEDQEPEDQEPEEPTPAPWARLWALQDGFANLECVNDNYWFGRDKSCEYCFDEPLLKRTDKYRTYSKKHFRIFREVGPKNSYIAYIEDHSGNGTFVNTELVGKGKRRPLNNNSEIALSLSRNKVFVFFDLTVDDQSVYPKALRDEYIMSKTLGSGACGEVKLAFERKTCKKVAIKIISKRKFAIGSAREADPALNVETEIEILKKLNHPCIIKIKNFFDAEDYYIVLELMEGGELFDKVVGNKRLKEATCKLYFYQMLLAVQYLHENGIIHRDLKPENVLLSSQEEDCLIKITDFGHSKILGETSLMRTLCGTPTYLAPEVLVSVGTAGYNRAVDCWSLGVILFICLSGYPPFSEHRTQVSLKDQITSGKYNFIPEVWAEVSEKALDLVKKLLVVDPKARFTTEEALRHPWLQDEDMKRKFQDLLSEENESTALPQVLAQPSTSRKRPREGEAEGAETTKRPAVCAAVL

[16] = target: Serine/threonine-protein kinase B-raf (Homo sapiens, UniProt P15056); assay: Selectivity interaction (NanoBRET assay (HEK293T cells)) EUB0000712a BRAF
Mu-type opioid receptor = Mu-type opioid receptor (Homo sapiens, UniProt P35372); assay: Selectivity interaction (GPCR panel (PDSP screen)) EUB0000712a OPRM1; conditions: at 10 µM
[17] = target: Receptor-interacting serine/threonine-protein kinase 2 (Homo sapiens) (UniProt O43353); assay: Selectivity interaction (KinomeScan (DiscoverX)) EUB0000712a RIPK2; conditions: at 1 µM
[18] = target: T7, Serine/threonine-protein kinase 38-like (Homo sapiens, UniProt Q9Y2H1); assay: Selectivity interaction (KinomeScan (DiscoverX)) EUB0000712a STK38L; conditions: at 1 µM
Target sequence in this assay (Q9Y2H1 2-464 limits assumed): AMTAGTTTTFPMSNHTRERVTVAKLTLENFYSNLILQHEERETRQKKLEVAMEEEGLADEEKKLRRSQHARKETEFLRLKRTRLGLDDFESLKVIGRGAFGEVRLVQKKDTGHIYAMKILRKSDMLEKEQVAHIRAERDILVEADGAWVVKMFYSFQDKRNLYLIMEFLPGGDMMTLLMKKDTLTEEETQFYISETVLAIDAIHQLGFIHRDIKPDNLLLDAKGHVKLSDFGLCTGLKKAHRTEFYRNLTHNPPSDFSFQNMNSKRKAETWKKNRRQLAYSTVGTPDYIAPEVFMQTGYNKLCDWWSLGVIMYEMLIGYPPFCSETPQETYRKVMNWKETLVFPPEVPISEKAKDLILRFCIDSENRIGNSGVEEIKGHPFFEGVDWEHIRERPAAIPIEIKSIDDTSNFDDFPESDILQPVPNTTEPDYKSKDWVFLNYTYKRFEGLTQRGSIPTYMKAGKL

[19] = target: Phosphatidylinositol 4,5-bisphosphate 3-kinase catalytic subunit alpha isoform (Homo sapiens, UniProt P42336); assay: Selectivity interaction (KinomeScan (DiscoverX)) EUB0000712a PIK3CA; conditions: at 1 µM
[20] = target: T7, Serine/threonine-protein kinase 38-like; assay: Selectivity interaction (NanoBRET assay (HEK293T cells)) EUB0000712a STK38L
[21] = target: T6, Serine/threonine-protein kinase Chk2; assay: Selectivity interaction (NanoBRET assay (HEK293T cells)) EUB0000712a CHEK2
[22] = target: T8, Homeodomain-interacting protein kinase 1 (Homo sapiens, UniProt Q86Z02); assay: Selectivity interaction (KinomeScan (DiscoverX)) EUB0000724a HIPK1; conditions: at 1 µM
[23] = target: T9, Mitogen-activated protein kinase 15 (Homo sapiens) (UniProt Q8TD08); assay: Selectivity interaction (KinomeScan (DiscoverX)) EUB0000724a MAPK15; conditions: at 1 µM
T9 sequence (whole entry): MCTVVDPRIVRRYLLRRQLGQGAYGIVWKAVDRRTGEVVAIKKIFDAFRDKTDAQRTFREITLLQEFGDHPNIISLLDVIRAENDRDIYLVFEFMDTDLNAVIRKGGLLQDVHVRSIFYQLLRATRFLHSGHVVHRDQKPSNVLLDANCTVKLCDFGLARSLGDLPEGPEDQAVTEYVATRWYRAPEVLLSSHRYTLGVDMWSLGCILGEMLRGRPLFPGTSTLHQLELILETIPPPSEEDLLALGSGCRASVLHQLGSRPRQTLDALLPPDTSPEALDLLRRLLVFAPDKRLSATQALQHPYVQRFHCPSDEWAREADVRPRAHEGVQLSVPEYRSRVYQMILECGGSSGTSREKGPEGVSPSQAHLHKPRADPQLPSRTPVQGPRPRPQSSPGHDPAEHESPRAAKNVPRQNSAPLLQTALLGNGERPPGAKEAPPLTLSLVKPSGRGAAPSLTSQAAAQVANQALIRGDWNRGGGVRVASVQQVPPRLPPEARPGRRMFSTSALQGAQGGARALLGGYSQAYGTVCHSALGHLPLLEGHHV

[24] = target: T8, Homeodomain-interacting protein kinase 1; assay: Selectivity interaction (NanoBRET assay (HEK293T cells)) EUB0000724a HIPK1
[25] = target: Serine/threonine-protein kinase Nek7 (Homo sapiens, UniProt Q8TDX7); assay: Selectivity interaction (KinomeScan (DiscoverX)) EUB0000724a NEK7; conditions: at 1 µM
Chain of Serine/threonine-protein kinase Nek7 (Q8TDX7 whole entry, looked up): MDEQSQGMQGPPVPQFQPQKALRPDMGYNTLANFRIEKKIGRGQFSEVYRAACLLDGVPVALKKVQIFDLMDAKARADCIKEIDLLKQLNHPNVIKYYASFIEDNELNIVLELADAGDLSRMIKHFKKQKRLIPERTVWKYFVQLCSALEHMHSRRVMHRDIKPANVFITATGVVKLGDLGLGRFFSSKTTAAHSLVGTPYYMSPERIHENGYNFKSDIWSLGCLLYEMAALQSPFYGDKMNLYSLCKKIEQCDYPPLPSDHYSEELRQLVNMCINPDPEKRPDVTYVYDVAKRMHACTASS

[26] = target: T10, Serine/threonine-protein kinase 16 (Homo sapiens, UniProt O75716); assay: Selectivity interaction (KinomeScan (DiscoverX)) EUB0000724a STK16; conditions: at 1 µM
T10 sequence (O75716 whole entry): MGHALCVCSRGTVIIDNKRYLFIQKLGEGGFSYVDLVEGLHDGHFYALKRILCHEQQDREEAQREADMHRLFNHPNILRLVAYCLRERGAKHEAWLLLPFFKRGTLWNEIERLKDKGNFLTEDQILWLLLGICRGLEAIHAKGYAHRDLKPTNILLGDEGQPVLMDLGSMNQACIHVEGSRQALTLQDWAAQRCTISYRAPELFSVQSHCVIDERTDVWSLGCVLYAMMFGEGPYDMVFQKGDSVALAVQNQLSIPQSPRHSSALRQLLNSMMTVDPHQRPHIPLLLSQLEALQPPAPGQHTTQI

[27] = target: T11, Homeodomain-interacting protein kinase 2 (Homo sapiens, UniProt Q9H2X6); assay: Selectivity interaction (KinomeScan (DiscoverX)) EUB0000724a HIPK2; conditions: at 1 µM
[28] = target: T12, Phosphatidylinositol 5-phosphate 4-kinase type-2 beta (Homo sapiens) (UniProt P78356); assay: Selectivity interaction (KinomeScan (DiscoverX)) EUB0000724a PIP4K2B; conditions: at 1 µM
T12 sequence (whole entry): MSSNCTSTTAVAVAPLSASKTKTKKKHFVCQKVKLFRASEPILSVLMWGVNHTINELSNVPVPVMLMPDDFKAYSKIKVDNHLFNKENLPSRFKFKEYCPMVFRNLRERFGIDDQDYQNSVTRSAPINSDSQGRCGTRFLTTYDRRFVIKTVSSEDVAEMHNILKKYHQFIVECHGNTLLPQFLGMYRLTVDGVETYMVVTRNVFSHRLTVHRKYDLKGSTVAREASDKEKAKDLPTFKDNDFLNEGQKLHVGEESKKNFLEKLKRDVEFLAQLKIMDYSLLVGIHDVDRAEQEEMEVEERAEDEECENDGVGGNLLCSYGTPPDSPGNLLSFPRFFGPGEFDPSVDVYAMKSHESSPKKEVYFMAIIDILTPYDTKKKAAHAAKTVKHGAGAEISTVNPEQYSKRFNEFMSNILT

[29] = target: T11, Homeodomain-interacting protein kinase 2; assay: Selectivity interaction (NanoBRET assay (HEK293T cells)) EUB0000724a HIPK2
[30] = target: T10, Serine/threonine-protein kinase 16; assay: Selectivity interaction (NanoBRET assay (HEK293T cells)) EUB0000724a STK16

T1 sequence (P16234 whole entry): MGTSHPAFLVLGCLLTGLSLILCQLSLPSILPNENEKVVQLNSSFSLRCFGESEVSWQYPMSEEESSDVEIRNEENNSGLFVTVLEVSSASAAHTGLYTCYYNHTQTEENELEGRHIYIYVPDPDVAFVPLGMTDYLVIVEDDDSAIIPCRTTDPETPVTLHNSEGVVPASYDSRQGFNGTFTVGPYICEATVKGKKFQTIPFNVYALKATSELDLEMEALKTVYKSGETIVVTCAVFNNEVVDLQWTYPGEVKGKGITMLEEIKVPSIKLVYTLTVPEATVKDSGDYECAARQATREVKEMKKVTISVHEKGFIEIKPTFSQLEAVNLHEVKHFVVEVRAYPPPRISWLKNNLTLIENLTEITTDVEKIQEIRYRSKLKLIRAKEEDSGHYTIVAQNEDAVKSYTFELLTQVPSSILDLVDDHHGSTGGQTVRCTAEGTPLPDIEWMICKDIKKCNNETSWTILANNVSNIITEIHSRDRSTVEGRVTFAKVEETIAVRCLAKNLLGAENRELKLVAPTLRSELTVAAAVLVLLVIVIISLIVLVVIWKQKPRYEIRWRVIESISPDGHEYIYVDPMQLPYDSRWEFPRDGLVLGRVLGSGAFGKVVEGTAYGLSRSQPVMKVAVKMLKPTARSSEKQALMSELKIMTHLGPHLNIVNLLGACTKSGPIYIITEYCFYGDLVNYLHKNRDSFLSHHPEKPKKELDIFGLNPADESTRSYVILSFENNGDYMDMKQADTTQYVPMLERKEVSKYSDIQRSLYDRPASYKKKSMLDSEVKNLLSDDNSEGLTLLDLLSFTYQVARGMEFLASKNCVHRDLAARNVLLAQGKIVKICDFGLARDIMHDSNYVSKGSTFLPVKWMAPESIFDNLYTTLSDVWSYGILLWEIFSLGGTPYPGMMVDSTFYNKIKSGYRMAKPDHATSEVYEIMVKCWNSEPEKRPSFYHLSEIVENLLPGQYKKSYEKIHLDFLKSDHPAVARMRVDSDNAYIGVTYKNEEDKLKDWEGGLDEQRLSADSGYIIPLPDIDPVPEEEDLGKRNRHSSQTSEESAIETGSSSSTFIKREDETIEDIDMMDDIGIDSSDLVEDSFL

% of control [1]: 29%
IC50 [2]: 3 µM
% of control [3]: 14%
% of control [4]: 4.4%
% of control [5]: 19%
IC50 [6]: 2.44 µM
IC50 [7]: 138 µM
% of control [8]: 24%
% of control [9]: 0.3%
% of control [10]: 4.9%
IC50 [11]: 2.52 µM
IC50 [12]: > 10 µM
IC50 [13]: 2.44 µM
IC50 [14]: > 10 µM
Compound: CN1CCN(C(=O)C(C)(C)c2ccc(C(=O)Nc3cn4cc(-c5ccncc5)ccc4n3)cc2)CC1 [T3-CLK]

% of control [15]: 37%
IC50 [16]: > 25 µM
% of inhibition (Mu-type opioid receptor): 45.3%
% of control [17]: 30%
% of control [18]: 40%
% of control [19]: 37%
IC50 [20]: > 25 µM
IC50 [21]: > 25 µM
Compound: CS(=O)(=O)N1CCCC(NC(=O)[C@H](CCC2CCCCC2)NC(=O)c2ccc(CNC(=O)c3cnc4ccccn34)cc2)C1 (stereo partly specified) [SR-302]

% of control [22]: 31%
IC50 [24]: > 10 µM
% of control [25]: 40%
% of control [26]: 53%
% of control [27]: 34%
% of control [28]: 50%
IC50 [29]: > 10 µM
IC50 [30]: 0.167 µM
Compound: COc1cc(Nc2nccc(-c3cnn4nc(OC)ccc34)n2)cc(C(F)(F)F)c1
% of control [23]: 21%
